Laboratory results: patent publication US20090163474A1, “FXR Agonists for the Treatment of Nonalcoholic Fatty Liver and Cholesterol Gallstone Diseases” (Wyeth, priority 2007, published 2009)
Where two headings read alike, the source gives them in different places.

Key:
Hep3B cells [1] = experiment: IL-6 induced CRP gene expression in Hep3B cells; assay type: cell-based, Human; settings: Compound A 1 μM; IL-6 10 ng/ml or 50 ng/ml; P<0.001 vs DMSO
Procedure: (§1) Human hepatoma cells, Hep3B secrete the acute phase protein, C-reactive protein (CRP) upon IL-6 treatment. Cells were cotreated with Compound A to determine if Compound A could decrease IL-6 induced CRP secretion.
FIGS. 26A and 26B show the CRP gene expression level in Hep3B cells stimulated with IL-6 (10 ng/ml or 50 ng/ml), and treated with vehicle (DMSO) or Compound A (1 μM). […] (*P<0.001, Hep3B/DMSO vs. Hep3B/Compound A).

mice fed a Paigen diet = experiment: Gallbladder bile lipid composition, Paigen diet with treatment; assay type: in vivo
Procedure: (§2) Disrupted cholesterol, phospholipid, and bile salt homeostasis contributes to the formation of gallstones. Gallbladder bile lipid composition was quantitated from mice treated as follows. A group of mice (CHOW) was fed a standard chow diet. Another group of mice was fed a Paigen diet and administered vehicle (Paigen/Vehicle) or 30 mg/kg Compound A (Paigen/Compound A) orally once a day for 4 weeks. To preform gallstones, mice were fed initially a Paigen diet for 4 weeks and subsequently fed a standard chow diet and administered vehicle (Preformed/Vehicle) or 30 mg/kg Compound A (Preformed/Compound A) orally once a day for 4 weeks. […] Data are presented as the mean±SE.

[2] = test system: Wildtype mice challenged with CCl4; experiment: CCl4 induced acute liver injury and fibrosis in mice; assay type: in vivo; settings: 30 mg/kg for 4 days, 30 μl/kg CCl4 on day 3, 24 hours
Procedure: Wildtype mice were treated with 30 mg/kg Compound A or vehicle for 4 days. On day 3, mice were challenged with 30 μl/kg of carbon tetrachloride (CCl4) to induce acute liver injury. After 24 hours, mice were euthanized and their livers were harvested for analysis.

[3] = test system: wildtype (WT) mice fed a MCD diet; experiment: MCD diet, wildtype mice (WT vs FXRKO study); assay type: in vivo; settings: 30 mg/kg orally once a day for 4 weeks
Procedure: (§3) Mice were fed a standard chow diet or a MCD diet and treated with either vehicle or 30 mg/kg Compound A orally once a day for 4 weeks.

[4] = test system: C57Bl/6 mice fed a MCD diet (preformed NASH); experiment: Preformed NASH in MCD diet fed mice; assay type: in vivo; settings: MCD diet 2 weeks
Source text: C57Bl/6 mice were fed a MCD diet for 2 weeks to induce the development of NASH to study the effect of Compound A treatment on preformed NASH. These mice were then maintained on the MCD diet while being treated with vehicle or Compound A. Mice were euthanized 2 weeks (2 w), and 4 weeks (4 w) after the beginning of treatment with vehicle or Compound A for analysis. As controls, mice were fed a chow diet or fed a MCD diet for 2 weeks, and then euthanized for analysis.

[5] = test system: Wildtype mice challenged with LPS; experiment: LPS-induced liver acute phase response, wildtype mice; assay type: in vivo; settings: 30 mg/kg for 4 days; 2.5 micrograms LPS, 4 hours; P<0.01
Procedure: (§4) Wildtype and FXR deficient mice were treated with Compound A (30 mg/kg) or vehicle for 4 days. On day 4, mice were challenged with 2.5 micrograms of lipopolysaccharide (LPS) to induce an acute phase response. After 4 hours, the mice were euthanized and their livers were harvested for analysis of expression of various factors. […] Compound A attenuated the LPS-induced murine liver acute phase response. […] (*P<0.01, WT/LPS/V vs. WT/LPS/Compound A).

Hep3B cells [6] = experiment: IL-6 induced CRP secretion in Hep3B cells; assay type: cell-based, Human; settings: for IC50: Homo sapiens, Hep3B, read-out: IC50 of inhibitory effect on CRP secretion
Procedure: as §1
FIGS. 24A, 24B, and 24C show the levels of CRP secretion (pg/ml) in Hep3B cells after stimulation with IL-6 (10 ng/ml), or IL-6 (50 ng/ml), or IL-6 (10 ng/ml & IL-1β 20 ng/ml), and treated with vehicle (DMSO) or Compound A (5 μM). […] (*P<0.001, Hep3B/DMSO vs. Hep3B/Compound A).

[7] = test system: FXR deficient (FXRKO) mice fed a MCD diet; experiment: MCD diet, FXR deficient mice (WT vs FXRKO study); assay type: in vivo; settings: 30 mg/kg orally once a day for 4 weeks
Procedure: as §3

[8] = test system: FXRKO mice challenged with LPS; experiment: LPS-induced liver acute phase response, FXR deficient mice; assay type: in vivo; settings: 30 mg/kg for 4 days; LPS treated FXRKO mice
Procedure: as §4

[9] = test system: mice with preformed gallstones; experiment: Gallbladder bile lipid composition, preformed gallstones; assay type: in vivo
Procedure: as §2

[10] = Paigen/Compound A vs Paigen/Vehicle
[11] = Paigen/Compound A, 30 mg/kg orally once a day for 4 weeks, mean±SE
[12] = then 2-week (P<0.001) and 4-week (P<0.01) treatment on MCD diet
[13] = then 2-week and 4-week treatment on MCD diet, P<0.01
[14] = Preformed/Compound A vs Preformed/Vehicle
[15] = Preformed/Compound A, Paigen diet 4 weeks, then chow and 30 mg/kg orally once a day for 4 weeks, mean±SE

Structure (SMILES): CC(C)OC(=O)C1=CN(C(=O)c2ccc(F)c(F)c2)CC(C)(C)c2c1[nH]c1ccccc21 [Compound A, isopropyl 3-(3,4-difluorobenzoyl)-1,1-dimethyl-1,2,3,6-tetrahydroazepino[4,5-b]indole-5-carboxylate]
- IL-6 induced CRP mRNA levels (Hep3B cells [1]): reduced
- bile cholesterol level increase induced by the Paigen diet, vs vehicle (mice fed a Paigen diet; [10]): attenuated the increases
- bile phospholipid level increase induced by the Paigen diet, vs vehicle (mice fed a Paigen diet; [10]): attenuated the increases
- BS (bile salt) in gallbladder bile (mice fed a Paigen diet; [11]): 110.42 ± 24.79 mM
- CE (cholesterol) in gallbladder bile (mice fed a Paigen diet; [11]): 7.70 ± 0.28 mM
- PL (phospholipids) in gallbladder bile (mice fed a Paigen diet; [11]): 20.19 ± 1.00 mM
- decrease of serum ALT levels vs vehicle ([2]; P<0.01): 60%
- decrease of serum AST levels vs vehicle ([2]; P<0.01): 75%
- decrease of liver TGF-β levels (TGF-β1 mRNA) vs vehicle ([2]; normalized to GAPDH, P<0.01): 30%
- decrease of liver a-SMA levels (mRNA) vs vehicle ([2]; normalized to GAPDH, P<0.01): 40%
- decrease of liver MMP-9 levels (mRNA) vs vehicle ([2]; normalized to GAPDH, P<0.04): 75%
- decrease of liver TIMP-1 levels (mRNA) vs vehicle ([2]; normalized to GAPDH, P<0.04): 60%
- liver TIMP-1 gene expression level vs vehicle ([3]; P<0.001): reduction
- liver VCAM-1 gene expression level vs vehicle ([3]; P<0.001): decreasing
- liver Col1a2 expression level vs vehicle ([3]; P<0.01): reduction
- serum ALT levels vs vehicle ([3]; P<0.01): decreased
- liver Col1a2 gene expression level vs vehicle [4, 12]: significantly lowered
- liver MMP-2 gene expression level vs vehicle [4, 12]: significantly lowered
- liver TIMP-1 gene expression level vs vehicle [4, 12]: significantly lowered
- liver MCP-1 gene expression level vs vehicle [4, 13]: significantly lowered
- liver VCAM-1 gene expression level vs vehicle [4, 13]: significantly lowered
- serum level of ALT vs vehicle [4, 13]: significantly reduced
- serum level of AST vs vehicle [4, 13]: significantly reduced
- reduction of liver SAA-3 levels vs vehicle [5]: 35%
- reduction of liver SAP levels vs vehicle [5]: 40%
- reduction of liver VCAM-1 levels vs vehicle [5]: 40%
- IL-6 induced CRP secretion (Hep3B cells [6]; Compound A 5 μM, IL-6 10 ng/ml, IL-6 50 ng/ml, or IL-6 10 ng/ml & IL-1β 20 ng/ml, P<0.001 vs DMSO): inhibited
- IC50 (Hep3B cells [6]; 10 ng/ml of IL-6): 224 nM
- IC50 (Hep3B cells [6]; 50 ng/ml IL-6): 220 nM
- effect on liver VCAM-1 levels, FXR dependence [7]: mediated by FXR
- hepatic protective effect (serum ALT), FXR dependence [7]: mediated by FXR
- reduction of liver Col1a2, FXR dependence [7]: mediated by FXR
- reduction of liver TIMP-1, FXR dependence [7]: mediated by FXR
- liver SAA-3 levels [8]: not significantly altered
- liver SAP levels [8]: not significantly altered
- liver VCAM-1 levels [8]: not significantly altered
- bile cholesterol level vs vehicle [9, 14]: higher
- bile phospholipid level vs vehicle [9, 14]: higher
- bile salt level vs vehicle [9, 14]: Lower
- BS (bile salt) in gallbladder bile [9, 15]: 120.06 ± 14.28 mM
- CE (cholesterol) in gallbladder bile [9, 15]: 7.54 ± 0.86 mM
- PL (phospholipids) in gallbladder bile [9, 15]: 27.54 ± 2.14 mM
- bile salt/phospholipid ratio vs vehicle ([9]; mice with preformed gallstones): significantly decreased
